Results as given in patent US4563527A, “Amidine compounds” (Torii & Co., Ltd., priority 1984, dated 1986).
Where two headings read alike, the source gives them in different places.

Assays:
[1] = biological target: Thrombin (Homo sapiens, UniProt P00734); test: biochemical; details: for IC50: read-out: ID50 thrombin
[2] = biological target: T1, C1s (Homo sapiens, UniProt P09871); test: Anti-C1s activity (hydrolysis of ATEE); type: biochemical; details: molar concentration inhibiting 50% of ATEE hydrolysis; read-out: ID50 C1s (Anti-C1 activity)
T1 sequence (P09871 438-688 limits assumed): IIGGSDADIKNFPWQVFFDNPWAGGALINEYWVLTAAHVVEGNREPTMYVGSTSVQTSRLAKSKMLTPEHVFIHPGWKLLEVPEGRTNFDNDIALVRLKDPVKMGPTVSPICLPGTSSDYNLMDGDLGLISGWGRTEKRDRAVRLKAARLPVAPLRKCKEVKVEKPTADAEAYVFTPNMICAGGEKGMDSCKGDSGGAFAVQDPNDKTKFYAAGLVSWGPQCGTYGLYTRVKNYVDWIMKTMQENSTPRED
T1 sequence (P09871 16-437 partner limits assumed): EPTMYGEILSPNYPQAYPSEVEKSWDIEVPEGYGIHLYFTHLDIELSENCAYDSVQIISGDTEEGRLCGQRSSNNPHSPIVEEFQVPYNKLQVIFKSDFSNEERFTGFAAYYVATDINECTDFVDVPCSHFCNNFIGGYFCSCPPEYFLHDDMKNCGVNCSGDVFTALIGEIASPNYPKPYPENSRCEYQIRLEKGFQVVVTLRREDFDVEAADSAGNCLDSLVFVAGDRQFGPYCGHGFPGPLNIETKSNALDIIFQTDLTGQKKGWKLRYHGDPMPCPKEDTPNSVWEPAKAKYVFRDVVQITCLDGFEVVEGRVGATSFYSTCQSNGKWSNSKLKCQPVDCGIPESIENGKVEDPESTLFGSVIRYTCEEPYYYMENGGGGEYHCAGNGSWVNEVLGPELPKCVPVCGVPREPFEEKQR
Description: The anti-C1 esterase (C1r, C1s) activity was determined according to the method of Okamura et al. [K. Okamura, M. Muramatsu and B. Fujii, Biochem. Biophys. Acta, 295, 252-257 (1973)]. The inhibition of complement mediated hemolysis was determined according to the method of Baker et al. [B. R. Baker and E. H. Erickson, J. Med. Chem. 12, 408-414 (1969)]. The figures in Table 2 have the following meanings:
C1s: Molar concentration of the test compound which inhibits 50% of the ability of C1s to hydrolyse ATEE (acetyltyrosin ethyl ester) (ID50).

[3] = tested on: Kallikrein; test: Anti-kallikrein activity (hydrolysis of TAME); type: biochemical; details: molar concentration inhibiting 50% of TAME hydrolysis; read-out: ID50 kallikrein
Description: (§1) The anti-trypsin, anti-plasmin, anti-kallikrein and anti-thrombin activities were determined according to the method of Muramatsu et al. [M. Muramatus, T. Onishi, S. Makino, Y. Hayashi and S. Fujii, J. of Biochem., 58, 214 (1965)]. The data summarized in Table 1 are expressed in terms of molar concentration (ID50) of the test compound which inhibits 50% of the activity of each enzyme to hydrolyze TAME (tosylalginine methyl ester). The compound No. corresponds to the compound number shown in Examples.

[4] = tested on: complement; test: Inhibition of complement mediated hemolysis; type: cell-based
Description: The complement mediated hemolysis is widely used as a means to determine the titration of complement. The principle of this method is based on the fact that hemolysis is caused by the activation of complement, when the latter is added to a complex (immune complex) of erythrocytes and the antibody thereof. The degree of hemolysis varies in proportion to the amount of complement added. Therefore, when a known amount of complement admixed with a C1 esterase inhibitor is used, the hemolysis must be suppressed in proportion to the inhibitory activity.
The anti-C1 esterase (C1r, C1s) activity was determined according to the method of Okamura et al. [K. Okamura, M. Muramatsu and B. Fujii, Biochem. Biophys. […] The figures in Table 2 have the following meanings: […]

[5] = biological target: T2, C1r (Homo sapiens, UniProt P00736); test: biochemical; details: molar concentration inhibiting 50% of AAME hydrolysis; read-out: ID50 C1r (Anti-C1 activity)
T2 sequence (P00736 464-705 limits assumed): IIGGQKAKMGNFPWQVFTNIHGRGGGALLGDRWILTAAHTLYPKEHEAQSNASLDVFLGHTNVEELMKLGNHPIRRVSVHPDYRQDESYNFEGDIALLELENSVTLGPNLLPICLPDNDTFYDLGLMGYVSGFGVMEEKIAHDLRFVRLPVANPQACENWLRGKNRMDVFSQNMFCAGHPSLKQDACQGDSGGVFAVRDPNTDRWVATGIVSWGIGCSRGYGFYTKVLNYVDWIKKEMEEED
T2 sequence (P00736 18-463 partner limits assumed): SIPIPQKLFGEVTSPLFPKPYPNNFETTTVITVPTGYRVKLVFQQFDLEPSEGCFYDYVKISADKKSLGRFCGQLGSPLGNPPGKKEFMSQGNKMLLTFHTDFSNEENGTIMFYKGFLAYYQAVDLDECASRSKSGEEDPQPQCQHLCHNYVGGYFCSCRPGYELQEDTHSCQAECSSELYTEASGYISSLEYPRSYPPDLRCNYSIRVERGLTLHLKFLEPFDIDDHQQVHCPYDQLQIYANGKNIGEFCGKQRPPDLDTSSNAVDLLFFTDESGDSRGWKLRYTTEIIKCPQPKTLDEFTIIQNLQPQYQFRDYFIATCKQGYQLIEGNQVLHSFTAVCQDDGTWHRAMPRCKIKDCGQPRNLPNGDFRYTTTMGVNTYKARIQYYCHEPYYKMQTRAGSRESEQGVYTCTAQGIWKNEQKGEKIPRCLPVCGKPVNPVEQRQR

[6] = biological target: T3, Trypsin (Bos taurus, UniProt P00760); test: Anti-trypsin activity (hydrolysis of TAME); type: biochemical; details: molar concentration inhibiting 50% of TAME hydrolysis; read-out: ID50 trypsin
T3 sequence (P00760 24-246): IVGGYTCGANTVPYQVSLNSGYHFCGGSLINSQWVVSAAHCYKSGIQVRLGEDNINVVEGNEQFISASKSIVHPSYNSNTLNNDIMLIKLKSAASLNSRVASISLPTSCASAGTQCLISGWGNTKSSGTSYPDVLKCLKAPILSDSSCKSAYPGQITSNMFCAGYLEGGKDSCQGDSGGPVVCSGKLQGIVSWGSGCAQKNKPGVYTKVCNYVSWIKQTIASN
Description: as §1

[7] = biological target: Plasmin (Homo sapiens, UniProt P00747); test: Anti-plasmin activity (hydrolysis of TAME); type: biochemical; details: molar concentration inhibiting 50% of TAME hydrolysis; read-out: ID50 plasmin
Description: The anti-trypsin, anti-plasmin, anti-kallikrein and anti-thrombin activities were determined according to the method of Muramatsu et al. [M. Muramatus, T. Onishi, S. Makino, Y. Hayashi and S. Fujii, J. of Biochem., 58, 214 (1965)]. […] The compound No. corresponds to the compound number shown in Examples.

[8] = molar concentration inhibiting 50% of TAME hydrolysis

Plasmin, sequence (P00747 581-810 limits assumed, species assumed): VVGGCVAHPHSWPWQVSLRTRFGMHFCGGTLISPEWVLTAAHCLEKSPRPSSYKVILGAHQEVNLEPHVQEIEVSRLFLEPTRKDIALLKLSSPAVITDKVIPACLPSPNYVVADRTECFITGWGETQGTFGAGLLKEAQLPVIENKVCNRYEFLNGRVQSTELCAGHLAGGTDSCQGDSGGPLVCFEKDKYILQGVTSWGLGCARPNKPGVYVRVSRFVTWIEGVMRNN
Plasmin, sequence (P00747 97-580 partner limits assumed, species assumed): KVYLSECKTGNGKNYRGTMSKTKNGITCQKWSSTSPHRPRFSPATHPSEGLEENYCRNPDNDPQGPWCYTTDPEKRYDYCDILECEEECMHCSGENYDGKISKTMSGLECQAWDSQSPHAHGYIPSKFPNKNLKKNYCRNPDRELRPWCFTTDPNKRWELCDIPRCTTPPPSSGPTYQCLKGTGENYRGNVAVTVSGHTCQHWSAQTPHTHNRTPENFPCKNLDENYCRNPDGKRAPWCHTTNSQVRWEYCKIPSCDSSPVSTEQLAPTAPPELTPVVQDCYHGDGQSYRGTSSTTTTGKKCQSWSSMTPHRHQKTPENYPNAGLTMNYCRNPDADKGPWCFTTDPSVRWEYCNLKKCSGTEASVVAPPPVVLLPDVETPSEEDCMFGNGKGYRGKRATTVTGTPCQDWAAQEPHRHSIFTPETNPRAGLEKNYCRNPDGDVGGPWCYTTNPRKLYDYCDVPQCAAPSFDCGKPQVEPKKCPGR

inhibition at 10 µM ([1]; figure in parentheses, at 1×10^-5 M, TAME, read-out: percentage inhibition of thrombin) [%]	SMILES	IC50 [2] [nM]	IC50 [3] [nM]	Inhibition of complement mediated hemolysis (%) ([4]; 1 × 10^-5)	Inhibition of complement mediated hemolysis (%) ([4]; 1 × 10^-6)	Inhibition of complement mediated hemolysis (%) ([4]; 1 × 10^-7)	IC50 [5] [nM]	IC50 [6] [nM]	IC50 [7] [nM]	IC50 [1, 8] [nM]	IC50 [1] [nM]
46	N=C(N)NCc1ccc(C(=O)Oc2ccc3cc(C(=N)N)ccc3c2)s1 [compound 28]	3000	4000	100	82	35	2000	4000	9000		
	CCNC(=NC)NCc1ccc(C(=O)Oc2ccc3cc(C(=N)N)ccc3c2)o1 [compound 7]	2000	400	100	100	98	1000	2000	700	2000	
	N=C(N)c1ccc2cc(OC(=O)c3ccc(NC4=NCCN4)o3)ccc2c1 [compound 10]	300	400	100	100	91	5000	40	3000	200	
	N=C(N)c1ccc2cc(OC(=O)c3ccc(CN)o3)ccc2c1 [compound 33]	2000	4000	97	97	81	700	500	400		3000
	CCN=C(NCC)NCc1ccc(C(=O)Oc2ccc3cc(C(=N)N)ccc3c2)o1 [compound 8]	2000	400	100	100	98	800	2000	800	1000	
	N=C(N)c1ccc2cc(OC(=O)c3ccc(CNC(=O)C(N)CCCCN)o3)ccc2c1 (stereo not drawn) [compound 35]	3000	900	100	100	71	2000	8000	3000		3000
	CN(C)CC(=O)NCc1ccc(C(=O)Oc2ccc3cc(C(=N)N)ccc3c2)o1 [compound 14]	300	500	100	100	28	700	1000	2000	700	
